Measurements as given in patent publication US10295529B2, “Feline bitter taste receptors and methods” (Applied Food Biotechnology, Inc., priority 2013, dated 2019).

Key:
Type in all cases: cell-based, feline
fTAS2R38 [1] = assay: Fluo-4AM calcium assay, cells transiently expressing fTAS2R38 with Gα16gust44
Method: (§1) Cell lines that transiently express a desired TAS2R disclosed herein are generated by transfecting the appropriate expression vector, e.g., pcDNA3.1D-FLAGV5His-TAS2R38, constructed as described above in Ex. 2A into cells of a eukaryotic cell line (e.g., ATCC #CRL-11268 or Life Technologies, Cat# R700-07).
(§2) On day 0, 60,000 cells per well are plated on poly lysine coated, black 96 well plates with clear bottoms (Costar). The following day the cells are transfected with 150 ng TAS2R38 expression vector, e.g., pcDNA3.1D-FLAGV5His (Invitrogen) along with 45 ng of Gα16 chimera containing the last 44 amino acids of rat gustducin (Gα16gust44) with 0.5 ul Lipofectamine 2000 (Invitrogen) per well. Cells are then incubated 22-44 hours at 37° C. 5% CO2.
(§3) The expression of fTAS2R38 is evaluated by testing for the presence of a functional response to a known hTAS2R38 ligand (e.g., PTC), determined via automated calcium imaging using a Fluo-4AM (Life Technologies Corporation) Calcium Assay. Fluo-4AM is a fluorescent indicator of intracellular calcium dynamics (change in concentration) and allows monitoring changes in the calcium concentration, particularly an increase in response to receptor activation occurring after agonist exposure.
(§4) Testing for a functional response of fTAS2R38 to the known hTAS2R38 ligands, PTC and PROP, and of fTAS2R43 to the known hTAS2R43 ligands, aloin, denatonium and saccharine), was determined via automated calcium imaging using the Fluo-4AM (Life Technologies Corporation) Calcium Assay.

fTAS2R38 [2] = assay: Fluo-4AM calcium assay, stable Gα16-gustducin 44/TAS2R38 cell line
Source text: Fluo-4AM is a fluorescent indicator of intracellular calcium dynamics (change in concentration) and allows monitoring changes in the calcium concentration, particularly an increase in response to receptor activation occurring after agonist exposure.

fTAS2R43 = assay: Fluo-4AM calcium assay, cells transiently expressing fTAS2R43 with Gα16gust44
Method: as §1, §2, §3
Generation of cell lines transiently expressing the other fTAS2Rs disclosed herein is analogous.
as §4

With `CCCc1cc(=O)[nH]c(=S)[nH]1` [PROP, 6-n-propylthiouracil] the stimulation of receptor (fTAS2R38 [1]; 30 μM PROP, transient expression) was “not stimulated” and the “activation of cell line” value (fTAS2R38 [2]; 30 μm PROP) was “not activated”.

`NC(=S)Nc1ccccc1` [PTC, phenylthiocarbamide] was tested, and the activation over baseline (fTAS2R38 [1]; 100 μM PTC, transient expression) was 81% and the activation over baseline (fTAS2R38 [2]; 100 μM PTC) was 90%.

In the case of `CCCN(CCC)S(=O)(=O)c1ccc(C(=O)O)cc1` [probenecid, p-(dipropylsulfamoyl)benzoic acid], the “inhibition of the response to PTC” value (fTAS2R38 [1]; 1 mM probenecid, response of fTAS2R38 to PTC) is reported as “inhibited”, the “inhibition of the response to aloin” value (fTAS2R43; 1 mM probenecid, response of fTAS2R43 to aloin) is reported as “inhibited” and the “inhibition of the response to denatonium” value (fTAS2R43; 1 mM probenecid, response of fTAS2R43 to denatonium) is reported as “inhibited”.

In the case of `O=C1NS(=O)(=O)c2ccccc21` [saccharin], the stimulation of receptor (fTAS2R43; 6.7 mM saccharin, transient expression) is reported as “not stimulated”.
